Laboratory results: EP1621203A1, “RNAIII-inhibiting peptides for treating HIV infection” (Genoscience, priority 2004, dated 2006)
Where a name gives a salt, the structure may show the parent alone. Read-outs that look alike come from different tables or passages of the source. Where a SMILES comes first, the peptide text is derived from it. Bridges are numbered along the chain shown (N, C = ends). Roman numbers before positions name the chains, in order. Where no end group is shown, it is not given here. [ ]: non-standard residue; d: D form. Ava = NCCCCC(=O)O

Legend:
HIV-1 NL4-3 [1] = type: cell-based; conditions: for IC50: NL4-3
Procedure: (§1) Cell cultures - Human peripheral blood lymphocytes (PBL) obtained from healthy HIV-seronegative donors were isolated by Ficoll-Hypaque gradient centrifugation and maintained in RPMI 1640 with ultraglutamine supplemented with […], 100 U/ml penicillin and […] streptamycin, and 10% heat-inactivated fetal calf serum. Cells were stimulated three days in the medium supplemented with 20 U/ml phytohemagglutinin P before evaluation of the antiviral activity. The human C8166 T-cell line was maintained in RPMI 1640 supplemented with 100 U/ml penicillin and […] streptamycin, and 10% heat-inactivated fetal calf serum.
(§2) Evaluation of antiviral activity on human immune cells - Samples of 3 x 10^5 human PBL in […] are preincubated in 96-well plates with various concentrations of each peptide at 37°C (incubator flushed with 5% CO2). After 1 hour incubation, […] of viral suspension (HIV-1 NL4-3 strain) was added at a multiplicity of infection of 1,000 TCID50 per ml. After three washings, cells were cultured in 24-well plates with 1 ml of RPMI 1640 in the continuous presence of the peptides. The cell culture medium was replaced at day 4 post-infection. During this assay, treatment with antiviral compounds was permanent (before, during and after infection). Toxicity was evaluated through daily cell counts and trypan-blue exclusion assays. Infection of human PBL was assessed daily by virus-induced cytopathic effects (syncytium formation) and after 14 days by quantification of p24 antigen in culture supernatants. Measurements of HIV-1 p24 concentrations in the culture supernatant were achieved by ELISA with a detection cut-off of 5 pg/ml (p24 HIV kit, Perkin-Elmer). Similar assays were performed with human C8166 T-cells. Data on PBL are the mean of two separate experiments realized in duplicate.

HIV-1 NL4-3 [2] = experiment: Infection assay on human PBL with HIV-1 NL4-3 (syncytium formation, p24 antigen ELISA); type: cell-based; conditions: Human immunodeficiency virus 1, NL43, HIV-1 NL4-3 (1,000 TCID50), peptides continuously present; for IC50: read-out: IC50 (50% inhibitory concentration); for IC100: read-out: IC100 (100% inhibitory concentration)
Procedure: as §1, §2

Compound	IC50 (HIV-1 NL4-3 [1])	IC50 (HIV-1 NL4-3 [2])	IC100 (HIV-1 NL4-3 [2])	IC100 (100% inhibitory concentration) (HIV-1 NL4-3 [1]; human PBL, HIV-1 NL4-3 (1,000 TCID50), peptides continuously present)
C[C@@H](O)[C@H](NC(=O)[C@H](Cc1c[nH]c2ccccc12)NC(=O)[C@@H]1CCCN1C(=O)[C@H](CO)NC(=O)[C@@H](N)Cc1ccc(O)cc1)C(=O)N[C@@H](CC(N)=O)C(=O)N[C@@H](Cc1ccccc1)C(=O)NCCCC[C@H](NC(=O)[C@H](Cc1ccccc1)NC(=O)[C@H](CC(N)=O)NC(=O)[C@@H](NC(=O)[C@H](Cc1c[nH]c2ccccc12)NC(=O)[C@@H]1CCCN1C(=O)[C@H](CO)NC(=O)[C@@H](N)Cc1ccc(O)cc1)[C@@H](C)O)C(=O)NCCCC[C@H](NC(=O)[C@H](CCCCNC(=O)[C@H](Cc1ccccc1)NC(=O)[C@H](CC(N)=O)NC(=O)[C@@H](NC(=O)[C@H](Cc1c[nH]c2ccccc12)NC(=O)[C@@H]1CCCN1C(=O)[C@H](CO)NC(=O)[C@@H](N)Cc1ccc(O)cc1)[C@@H](C)O)NC(=O)[C@H](Cc1ccccc1)NC(=O)[C@H](CC(N)=O)NC(=O)[C@@H](NC(=O)[C@H](Cc1c[nH]c2ccccc12)NC(=O)[C@@H]1CCCN1C(=O)[C@H](CO)NC(=O)[C@@H](N)Cc1ccc(O)cc1)[C@@H](C)O)C(N)=O [(YSPWTNF)4-K2-K-NH2] (I: H-YSPWTNFKK-NH2 / II: H-YSPWTNFK / III: H-YSPWTNF / IV: H-YSPWTNF; amide I:8-IV:C, I:9-II:C, II:8-III:C)	1000 nM	–	–	–
CC(C)(C)NC(=O)[C@@H]1CN(Cc2cccnc2)CCN1C[C@@H](O)C[C@@H](Cc1ccccc1)C(=O)N[C@H]1c2ccccc2C[C@H]1O [Crixivan®, Indinavir Sulfate]	–	70 nM	0.5 µM	–
Nc1ccn([C@@H]2CS[C@H](CO)O2)c(=O)n1 [Epivir®, Lamivudine]	–	50 nM	0.5 µM	–
C[C@@H](O)[C@H](NC(=O)[C@H](Cc1c[nH]c2ccccc12)NC(=O)[C@@H]1CCCN1C(=O)[C@H](CO)NC(=O)[C@@H](N)Cc1ccc(O)cc1)C(=O)N[C@@H](CC(N)=O)C(=O)N[C@@H](Cc1ccccc1)C(=O)NCCCCC(N)=O [YSPWTNF-valerate-NH2] (H-YSPWTNF[Ava]-NH2; N-terminus assumed)	500 nM	–	–	> 5 µM
C[C@H](O)[C@@H](NC(=O)[C@@H](Cc1c[nH]c2ccccc12)NC(=O)[C@H]1CCCN1C(=O)[C@@H](CO)NC(=O)[C@H](N)Cc1ccc(O)cc1)C(=O)N[C@H](CC(N)=O)C(=O)N[C@H](Cc1ccccc1)C(N)=O [YdSdPdWdTdNdFd-NH2] (H-[dY][dS][dP][dW][dT][dN][dF]-NH2)	5000 nM	–	–	–
YSPITNF-NH2 [YSPITNF-NH2]	300 nM	–	–	–
YSPWTNF-NH2 [YSPWTNF-NH2]	10 nM	–	–	–
